Measurements as given in US20220347175A1, “PYRIDAZINONE DERIVATIVE” (Sumitomo Dainippon Pharma Co., Ltd., priority 2018, published 2022).

What was measured:
[1] = biological target: T1, human Nav1.5 (Homo sapiens, UniProt Q14524); assay: Amplification of Nav1.5-derived voltage-dependent sodium current (Nav1.5 current), cell line stably expressing human Nav1.5, automated patch clamp; assay type: cell-based; conditions: for activation at 10 µM / activation at 1 µM / activation at 3 µM: read-out: Nav1.5 current amplification rate (%)
T1 construct: expressed in transfected cells; host or cells: CHO-K1 (T-REx System, ThermoFisher Scientific)
T1 sequence (Q14524 1-2015 isoform Q14524-2): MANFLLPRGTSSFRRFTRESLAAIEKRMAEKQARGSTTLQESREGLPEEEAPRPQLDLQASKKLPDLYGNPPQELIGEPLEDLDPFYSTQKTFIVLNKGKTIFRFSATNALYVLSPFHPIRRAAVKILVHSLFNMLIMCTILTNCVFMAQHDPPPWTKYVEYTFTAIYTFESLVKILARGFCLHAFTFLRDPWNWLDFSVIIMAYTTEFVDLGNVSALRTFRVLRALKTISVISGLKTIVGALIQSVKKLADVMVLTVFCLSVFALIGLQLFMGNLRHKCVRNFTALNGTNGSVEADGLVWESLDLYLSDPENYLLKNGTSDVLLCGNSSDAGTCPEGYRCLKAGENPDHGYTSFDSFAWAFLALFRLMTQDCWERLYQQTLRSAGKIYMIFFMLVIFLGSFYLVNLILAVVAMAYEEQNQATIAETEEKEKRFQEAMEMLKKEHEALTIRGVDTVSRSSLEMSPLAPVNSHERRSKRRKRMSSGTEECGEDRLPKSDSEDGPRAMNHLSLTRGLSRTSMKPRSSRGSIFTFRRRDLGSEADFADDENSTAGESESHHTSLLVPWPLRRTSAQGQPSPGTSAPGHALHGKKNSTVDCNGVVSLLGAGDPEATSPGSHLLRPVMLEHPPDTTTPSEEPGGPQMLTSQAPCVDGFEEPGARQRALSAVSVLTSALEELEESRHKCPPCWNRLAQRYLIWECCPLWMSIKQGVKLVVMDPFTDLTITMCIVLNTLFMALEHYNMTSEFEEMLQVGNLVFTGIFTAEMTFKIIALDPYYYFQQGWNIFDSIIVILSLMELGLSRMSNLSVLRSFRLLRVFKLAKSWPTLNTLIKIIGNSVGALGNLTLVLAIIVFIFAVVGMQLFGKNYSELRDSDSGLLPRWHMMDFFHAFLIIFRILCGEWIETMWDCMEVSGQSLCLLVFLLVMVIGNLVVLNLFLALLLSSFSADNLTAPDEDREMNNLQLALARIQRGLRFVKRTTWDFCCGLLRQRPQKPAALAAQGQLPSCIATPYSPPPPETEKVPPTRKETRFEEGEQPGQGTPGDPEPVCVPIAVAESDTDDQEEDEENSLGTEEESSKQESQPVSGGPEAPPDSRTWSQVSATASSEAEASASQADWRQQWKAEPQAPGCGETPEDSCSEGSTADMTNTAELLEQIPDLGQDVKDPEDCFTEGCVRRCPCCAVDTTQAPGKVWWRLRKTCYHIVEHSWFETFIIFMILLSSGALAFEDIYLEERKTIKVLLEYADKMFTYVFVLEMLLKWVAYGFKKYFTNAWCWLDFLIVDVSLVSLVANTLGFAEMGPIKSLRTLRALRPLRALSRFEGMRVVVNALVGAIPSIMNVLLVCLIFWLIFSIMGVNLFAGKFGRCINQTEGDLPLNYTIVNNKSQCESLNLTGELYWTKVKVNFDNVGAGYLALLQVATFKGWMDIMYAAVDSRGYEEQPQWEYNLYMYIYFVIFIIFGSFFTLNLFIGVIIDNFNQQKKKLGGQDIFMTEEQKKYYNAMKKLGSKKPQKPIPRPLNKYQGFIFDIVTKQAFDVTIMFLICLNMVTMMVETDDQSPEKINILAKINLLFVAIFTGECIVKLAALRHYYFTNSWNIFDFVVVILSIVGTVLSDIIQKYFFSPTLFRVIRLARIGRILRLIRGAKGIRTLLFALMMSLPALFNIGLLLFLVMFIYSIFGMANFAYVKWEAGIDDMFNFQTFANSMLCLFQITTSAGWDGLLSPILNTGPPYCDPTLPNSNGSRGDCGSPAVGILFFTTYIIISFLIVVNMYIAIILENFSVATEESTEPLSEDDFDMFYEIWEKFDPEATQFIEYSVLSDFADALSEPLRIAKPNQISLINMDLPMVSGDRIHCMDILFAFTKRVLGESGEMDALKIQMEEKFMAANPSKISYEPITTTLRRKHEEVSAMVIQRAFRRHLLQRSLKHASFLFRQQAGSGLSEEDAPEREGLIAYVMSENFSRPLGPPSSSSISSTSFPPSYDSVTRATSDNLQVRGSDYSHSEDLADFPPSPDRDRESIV

[2] = biological target: T2, human Nav1.1 (Homo sapiens, UniProt P35498); assay: Amplification of Nav1.1-derived voltage-dependent sodium current (Nav1.1 current), cell line stably expressing human Nav1.1, automated patch clamp; assay type: cell-based; conditions: for activation at 10 µM / activation at 1 µM / activation at 3 µM: read-out: Nav1.1 current amplification rate (%)
T2 construct: host or cells: HEK293
In short: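 Automated whole-cell voltage-clamp recordings used HEK293 cells stably expressing human Nav1.1, keeping only cells with >500 pA current, with currents evoked by ramp voltage. Compounds were applied in extracellular fluid with 1% DMSO, and amplification (%) was computed from peak current or AUC after versus before addition.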

[3] = compound 1 μmol/L, CHO-K1 stably expressing human Nav1.5
[4] = compound 1 μmol/L, HEK293 stably expressing human Nav1.1
[5] = 10 μmol/L compound, change of the area under the curve of Nav1.5 current (Test Result 1)
[6] = 10 μmol/L compound, change of the area under the curve of Nav1.1 current (Test Result 1)
[7] = compound 3 μmol/L, CHO-K1 stably expressing human Nav1.5
[8] = compound 3 μmol/L, HEK293 stably expressing human Nav1.1

| SMILES | Nav1.5 current amplification rate (%) [1, 5] | Nav1.1 current amplification rate (%) [2, 6] | activation at 10 µM [1, 5] | activation at 10 µM [2, 6] | other results |
| --- | --- | --- | --- | --- | --- |
| CC1CC=C(c2ccc(=O)n(CC(=O)Nc3ccc4cnnn4c3)n2)CC1 (racemic) [Example 345] | – | – | – | – | Nav1.5 current amplification rate (%) [1, 3]: 46%; Nav1.1 current amplification rate (%) [2, 4]: 232% |
| CC1CCN(c2ccc(=O)n(CC(=O)N3CCc4cc(N5CCOCC5)ccc43)n2)CC1 [Example 89] | 34% | 187% | – | – | – |
| Cc1ccc(-c2ccc(=O)n(CC(=O)Nc3ccc4ocnc4c3)n2)s1 [Example 455] | 21% | 131% | – | – | – |
| CC1CC=C(c2ccc(=O)n(CC(=O)N3CCc4c(C5CCNC5)cccc43)n2)CC1 (mixture of isomers) [Example 268] | – | – | – | – | Nav1.5 current amplification rate (%) [1, 7]: 22%; Nav1.1 current amplification rate (%) [2, 8]: 55% |
| COc1ccc(N2CCN(C(=O)Cn3nc(C4=CCC(C)CC4)ccc3=O)CC2)cn1 (centres unmarked) [Example 407] | – | – | – | – | Nav1.5 current amplification rate (%) [1, 7]: 6%; Nav1.1 current amplification rate (%) [2, 8]: 113% |
| Cc1cnc2cc(NC(=O)Cn3nc(N4CCC(C)CC4)ccc3=O)ccn12 [Example 232] | – | – | 8% | 37% | – |
| O=C(Cn1nc(N2CCCC3(CCC3)C2)ccc1=O)Nc1ccc2ocnc2c1 [Example 130] | – | – | 3% | 181% | – |
| CC1CC=C(c2ccc(=O)n(CC(=O)N3CCc4cc(C5CN(C6COC6)C5)ccc43)n2)CC1 (racemic) [Example 318] | – | – | – | – | Nav1.5 current amplification rate (%) [1, 7]: 128%; Nav1.1 current amplification rate (%) [2, 8]: 77% |
| CC1CCN(c2ccc(=O)n(CC(=O)Nc3ccc4ccoc4c3)n2)CC1 [Example 163] | – | – | 1% | 118% | – |
| COc1nc2cc(NC(=O)Cn3nc(C4=CCC(C)CC4)ccc3=O)ccc2o1 (racemic) [Example 239] | 31% | 310% | – | – | – |
| CC1CCN(c2ccc(=O)n(CC(=O)Nc3ccnc(C(F)(F)F)c3)n2)CC1 [Example 52] | 19% | 248% | – | – | – |
| CC1CCN(c2ccc(=O)n(CC(=O)Nc3cccc(-c4ncco4)c3)n2)CC1 [Example 78] | 4% | 78% | – | – | – |
| CN(C)c1cc(=O)n(CC(=O)Nc2ccc3ocnc3c2)nc1N1CCC2(CCCC2)C1 [Example 197] | – | – | 56% | 318% | – |
| CC1CC=C(c2ccc(=O)n(CC(=O)Nc3ccc4oc(CN(C)C)nc4c3)n2)CC1 (racemic) [Example 324] | – | – | – | – | Nav1.5 current amplification rate (%) [1, 7]: 5%; Nav1.1 current amplification rate (%) [2, 8]: 50% |
| O=C(Cn1nc(-c2cc(Cl)cs2)ccc1=O)Nc1ccc2ocnc2c1 [Example 454] | 35% | 157% | – | – | – |
| CCc1nc2cc(NC(=O)Cn3nc(N4CCC(C)CC4)ccc3=O)ccc2o1 [Example 97] | 19% | 296% | – | – | – |
| O=C(Cn1nc(C2=CCC3(CC2)CC3)ccc1=O)N1CCc2c(-c3ccnnc3)cccc21 [Example 526, 2-{2-oxo-2-[4-(pyridazin-4-yl)-2.3-dihydro-1H-indol-1-yl]ethyl}-6-(spiro[2.5]oct-5-en-6-yl)pyridazin-3(2H)one] | – | – | – | – | activation at 1 µM [1, 3]: 1%; activation at 1 µM [2, 4]: 499% |
| Cc1cc(NC(=O)Cn2nc(N3CCC4(CCCC4)C3)cc(C)c2=O)cc(C)n1 [Example 198] | – | – | -9% | 36% | – |
| O=C(Cn1nc(N2CC3(CCCCC3)C2)ccc1=O)Nc1ccn2ccnc2c1 [Example 179] | – | – | -1% | 27% | – |
| Cc1cc(=O)n(CC(=O)Nc2ccn3ncnc3c2)nc1C1=CCC(C)CC1 (centres unmarked) [Example 502] | – | – | – | – | activation at 1 µM [1, 3]: 7%; activation at 1 µM [2, 4]: 49% |
| CC1CCN(c2ccc(=O)n(CC(=O)Nc3ccnc(N4CCOCC4)c3)n2)CC1 [Example 66] | 31% | 49% | – | – | – |
| CC1CC=C(c2ccc(=O)n(CC(=O)N3CCC(c4ccccn4)CC3)n2)CC1 (racemic) [Example 260] | −6% | 13% | – | – | – |

| SMILES | Nav1.5 current amplification rate (%) [1, 5] | Nav1.1 current amplification rate (%) [2, 6] | activation at 10 µM [1, 5] | activation at 10 µM [2, 6] | other results |
| --- | --- | --- | --- | --- | --- |
| COc1ccc(N2CCN(C(=O)Cn3nc(C4=CCC(C(F)(F)F)CC4)ccc3=O)CC2)cn1 (centres unmarked) [Example 511] | – | – | – | – | activation at 3 µM [1, 7]: 6%; activation at 3 µM [2, 8]: 37% |
| CCN1CC(c2cccc3c2CCN3C(=O)Cn2nc(C3=CCC(C)CC3)ccc2=O)C1 (racemic) [Example 302] | – | – | – | – | Nav1.5 current amplification rate (%) [1, 7]: 79%; Nav1.1 current amplification rate (%) [2, 8]: 104% |
| Cc1cc(NC(=O)Cn2nc(N3CCC(C)CC3)ccc2=O)cc2ncoc12 [Example 96] | 7% | 105% | – | – | – |
| CC1CC=C(c2ccc(=O)n(CC(=O)Nc3ccc4oc(CN5CCC5)nc4c3)n2)CC1 (racemic) [Example 333] | – | – | – | – | Nav1.5 current amplification rate (%) [1, 7]: 13%; Nav1.1 current amplification rate (%) [2, 8]: 25% |
| CC1CC=C(c2ccc(=O)n(CC(=O)Nc3ccn4cc(C5CC5)nc4c3)n2)CC1 (racemic) [Example 334] | – | – | – | – | Nav1.5 current amplification rate (%) [1, 7]: 25%; Nav1.1 current amplification rate (%) [2, 8]: 255% |
| COc1cccc2c1CCN2C(=O)Cn1nc(C2=CCC(C)(C)CC2)ccc1=O [Example 431] | 3% | 11% | – | – | – |
| CC1CC=C(c2ccc(=O)n(CC(=O)N3CCc4c(-c5ccnnc5)cccc43)n2)CC1 (racemic) [Example 253] | – | – | – | – | Nav1.5 current amplification rate (%) [1, 7]: 85%; Nav1.1 current amplification rate (%) [2, 8]: 455% |
| N#Cc1cncc(NC(=O)Cn2nc(C3=CCC(F)(F)CC3)ccc2=O)c1 [Example 107] | – | – | 24% | 37% | – |
| N#Cc1ccc(NC(=O)Cn2nc(N3CCCCCC3)ccc2=O)cn1 [Example 119] | – | – | 25% | 120% | – |
| O=C(Cn1nc(N2CCC3(CCC3)C2)ccc1=O)Nc1ccc2scnc2c1 [Example 160] | – | – | 33% | 324% | – |
| CC1(C)CC=C(c2ccc(=O)n(CC(=O)Nc3ccn4ccnc4c3)n2)C1 [Example 465] | 8% | 186% | – | – | – |
| Cc1cc(N2CCC3(CCC3)C2)nn(CC(=O)Nc2ccc3c(c2)OCC3)c1=O [Example 202] | – | – | 3% | 131% | – |
| CC1CCN(c2ccc(=O)n(CC(=O)Nc3ccn4nccc4c3)n2)CC1 [Example 71] | 13% | 131% | – | – | – |
| CC1(C)CC=C(c2ccc(=O)n(CC(=O)Nc3ccc4ncnn4c3)n2)CC1 [Example 428, 2-[3-(4,4-dimethylcyclohex-1-en-1-yl)-6-oxopyridazin-1(6H)-yl]-N-([1,2,4]triazolo[1,5-a]pyridin-6-yl)acetamide] | – | – | – | – | activation at 1 µM [1, 3]: 23%; activation at 1 µM [2, 4]: 109% |
| O=C(Cn1nc(C2=CCC3(CC2)CC3(F)F)ccc1=O)N1CCN(c2cncc(C(F)(F)F)c2)CC1 (centres unmarked) [Example 509] | – | – | – | – | activation at 3 µM [1, 7]: 5%; activation at 3 µM [2, 8]: 238% |
| Cc1ccc(-c2ccc(=O)n(CC(=O)N3CCc4c(C5CN(C6COC6)C5)cccc43)n2)cc1 [Example 516] | – | – | – | – | activation at 1 µM [1, 3]: 13%; activation at 1 µM [2, 4]: 130% |
| CC1CCN(c2ccc(=O)n(CC(=O)N3CCc4cc(C(F)(F)F)ccc43)n2)CC1 [Example 189] | – | – | -2% | 3% | – |
| N#Cc1ccc(NC(=O)Cn2nc(N3CCC4(CCCC4)C3)ccc2=O)cn1 [Example 121] | – | – | 98% | 184% | – |
| Cc1cc(=O)n(CC(=O)Nc2ccc3c(c2)OCC3)nc1N1CCC2(CCC2)C1 [Example 203] | – | – | 12% | 267% | – |
| CC1CC=C(c2ccc(=O)n(CC(=O)N3CCc4c(C5CNC5)cccc43)n2)CC1 (racemic) [Example 299] | – | – | – | – | Nav1.5 current amplification rate (%) [1, 7]: 10%; Nav1.1 current amplification rate (%) [2, 8]: 6% |
| COc1cc(=O)n(CC(=O)Nc2ccc3ocnc3c2)nc1C1=CCC(C(F)(F)F)CC1 (centres unmarked) [Example 450] | 5% | 187% | – | – | – |
